Test systems include U-251; MCF7; SR; PC-3; SF-268; A549; HCT-116; SK-OV-3; MDA-MB-435; NCI-H460; HCT-15; DU-145; T47D; HT-29; NCI/ADR-RES.
What all share (assay): NCI-60 cell line screen, 48 h

The structures appear in SMILES notation. Values joined by “and” are separate entries in the source; they are usually repeats but may differ in a detail not shown here. Equal entries are not always repeated.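 Compound exposure: 48 hours, 5 concentrations, 96-well plates. The concentration for 50% growth inhibition is given as GI50.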 Active and inactive are the calls of the source. No stated cut-off is given here; in the data, active = GI50 up to about 1.1 µM and inactive = higher.

As for `CCOc1ccccc1-c1nc2c(s1)C(=O)c1ccccc1C2=O`, the GI50 was 14.6 µM (inactive) in the test with U-251; 12.2 µM (inactive) in the test with MCF7; 6.24 µM (inactive) in the test on SR; 12 µM (inactive) with PC-3; 12.6 µM (inactive) in the test on SF-268; 17.1 µM (inactive) in the test on A549. Besides, the GI50 was 15.2 µM (inactive) with HCT-116; 15 µM (inactive) with SK-OV-3; 2.15 µM (inactive) in the test on MDA-MB-435; 18.7 µM (inactive) with NCI-H460; 25.7 µM in the test on HCT-15; 19.4 µM (inactive) in the test with DU-145. In addition, in the test on T47D, the GI50 is 16.9 µM (inactive).

`O=C(/C=C1\Nc2ccc([N+](=O)[O-])cc2N=C1NC12CC3CC(CC(C3)C1)C2)c1ccccc1`: the GI50 was 7.16 µM (inactive) with U-251; > 10 µM (inactive) in the test with MCF7; > 10 µM (inactive) in the test with PC-3; > 10 µM (inactive) in the test with HT-29; > 10 µM (inactive) in the test on SF-268; 3.77 µM (inactive) with SK-OV-3. Moreover, the GI50 in the test with MDA-MB-435 was > 10 µM (inactive); in the test with NCI-H460, > 10 µM (inactive); in the test on HCT-15, more than 10 µM; with DU-145 it was > 10 µM (inactive); in the test on NCI/ADR-RES, > 10 µM (inactive); with T47D it was > 10 µM (inactive).

With `CSc1nc2c(c(=O)[nH]1)N=C(c1ccccc1)CC(c1ccccc1)N2` (stereo unspecified), the GI50 with U-251 was 34 µM (inactive); in the test with MCF7, 12.3 µM (inactive); with SR it was 21.1 µM (inactive); in the test with PC-3, 55.1 µM (inactive); in the test with HT-29, 30.4 µM (inactive); in the test on A549 it was 32.1 µM (inactive). Also, the GI50 with HCT-116 is 29.6 µM (inactive); in the test on SK-OV-3, 33.6 µM (inactive); in the test on MDA-MB-435, 40.7 µM (inactive); in the test with NCI-H460, 13.4 µM (inactive); in the test with DU-145, 30.1 µM (inactive); with NCI/ADR-RES it was 24.4 µM (inactive).

As for `CC(C)/C(Cl)=N\OC(=O)Nc1cccc(Cl)c1`, the GI50 is 18.4 µM (inactive) with U-251; 15.8 µM (inactive) in the test on MCF7; 2.49 µM (inactive) in the test on SR; 15.9 µM (inactive) with PC-3; 15 µM (inactive) with HT-29; 18.5 µM (inactive) in the test on SF-268. Besides, the GI50 in the test on A549 is 18.4 µM (inactive); with HCT-116, 18.1 µM (inactive); with SK-OV-3, > 43.9 µM (inactive); in the test with NCI-H460, 13.7 µM (inactive); in the test with HCT-15 it was 16.1 µM; in the test with DU-145 it was 22.5 µM (inactive). The GI50 is 10.6 µM (inactive) in the test on NCI/ADR-RES and 26.8 µM (inactive) in the test on T47D.

Regarding `O=c1[nH]nc(Cc2ccccc2)n1O`, the GI50 in the test on U-251, in the test on MCF7, in the test on SR, with HT-29, in the test with SF-268 and in the test on A549 was > 100 µM (inactive) throughout. Further, the GI50 in the test with HCT-116, with SK-OV-3, in the test on MDA-MB-435, with DU-145, with NCI/ADR-RES and in the test on T47D was > 100 µM (inactive) throughout.

As for `COc1cccc2c1-c1c(OC)cccc1SS2`, the GI50 in the test with U-251 is 15.7 µM (inactive); in the test with MCF7 it was 20.3 µM (inactive); in the test on SR, 16.9 µM (inactive); with PC-3, 32.5 µM (inactive); in the test with HT-29 it was 17.3 µM (inactive); with SF-268, 22.6 µM (inactive). In addition, the GI50 was 14.4 µM (inactive) in the test with A549; 18.2 µM (inactive) with HCT-116; 3.73 µM (inactive) with MDA-MB-435; 18.2 µM (inactive) in the test with NCI-H460; 13.4 µM in the test on HCT-15; 28.9 µM (inactive) in the test on DU-145. The GI50 in the test on NCI/ADR-RES was 36.6 µM (inactive).

Consider `O=C(/C=C\c1ccccc1-c1ccccc1)c1ccccc1`, for which the GI50 in the test with U-251 is > 100 µM (inactive); with SR it was > 100 µM (inactive); in the test on HT-29, > 100 µM (inactive); with SF-268, > 100 µM (inactive); in the test on A549, 3.93 µM (inactive); in the test with HCT-116, 66.5 µM (inactive). Besides, the GI50 is > 100 µM (inactive) in the test with SK-OV-3; > 100 µM (inactive) with MDA-MB-435; > 100 µM (inactive) in the test with NCI-H460; more than 100 µM in the test with HCT-15; > 100 µM (inactive) in the test on DU-145; > 100 µM (inactive) with NCI/ADR-RES. The GI50 in the test on T47D was 15.8 µM (inactive).

For the compound `O=C(Nc1ccc(Cl)cc1)c1cc(S(=O)(=O)Nc2n[nH]c(=O)[nH]2)c(SSc2cc(Cl)c(C(=O)Nc3ccc(Cl)cc3)cc2S(=O)(=O)Nc2n[nH]c(=O)[nH]2)cc1Cl`, the GI50 with U-251, with MCF7, with SR, in the test on PC-3, with HT-29 and in the test on SF-268 was > 100 µM (inactive) in each case. Further, the GI50 with A549 was > 100 µM (inactive); in the test on HCT-116 it was > 100 µM (inactive); in the test on SK-OV-3 it was > 100 µM (inactive); in the test with MDA-MB-435, > 100 µM (inactive); in the test with NCI-H460 it was > 100 µM (inactive); in the test with HCT-15 it was more than 100 µM. Moreover, the GI50 in the test on NCI/ADR-RES is > 100 µM (inactive).

Regarding `COc1cc2c(cc1O)C1Cc3ccc(OC)c(O)c3C(C2)N1C` (stereo unspecified), the GI50 was > 100 µM (inactive) with U-251; > 100 µM (inactive) with MCF7; 90.8 µM (inactive) with PC-3; 71 µM (inactive) in the test on HT-29; > 100 µM (inactive) in the test on SF-268; > 100 µM (inactive) in the test on A549. Besides, the GI50 in the test on HCT-116 was > 100 µM (inactive); in the test on SK-OV-3, > 100 µM (inactive); in the test with MDA-MB-435, > 100 µM (inactive); with NCI-H460 it was 94 µM (inactive); with HCT-15, more than 100 µM; in the test on DU-145, > 100 µM (inactive). The GI50 with NCI/ADR-RES and in the test on T47D was > 100 µM (inactive) in each case.

As to `CCOP(=O)(OCC)OC1c2[nH]ccc2-c2cc(C(=O)OC)[nH]c2C1OC` (stereo unspecified), the GI50 is > 100 µM (inactive) in the test with U-251; > 100 µM (inactive) in the test on MCF7; 66.8 µM (inactive) in the test with PC-3; > 100 µM (inactive) with HT-29; > 100 µM (inactive) with SF-268; > 100 µM (inactive) with A549. Besides, the GI50 with HCT-116 was > 100 µM (inactive); with SK-OV-3 it was > 100 µM (inactive); with MDA-MB-435, 77.4 µM (inactive); in the test on NCI-H460 it was 56.8 µM (inactive); in the test on HCT-15, 59.3 µM; with DU-145 it was > 100 µM (inactive). Also, the GI50 is > 100 µM (inactive) in the test on NCI/ADR-RES and 51.8 µM (inactive) with T47D.

In the case of `c1csc(-c2sc(-c3ccsc3)cc2Cc2ccsc2)c1`, the GI50 in the test with MCF7, in the test on SR, with PC-3, with HT-29, with SF-268 and in the test on A549 was > 10 µM (inactive) each time. Also, the GI50 in the test on SK-OV-3 is > 10 µM (inactive); in the test on MDA-MB-435 it was > 10 µM (inactive); in the test with HCT-15 it was more than 10 µM; in the test on DU-145 it was > 10 µM (inactive); in the test with T47D it was > 10 µM (inactive).

Regarding `O=C1/C(=C/c2ccco2)NC(=S)N1CN1CCCCC1`, the GI50 in the test on U-251 was > 100 µM (inactive); in the test on MCF7 it was 36.3 µM (inactive); with SR, 34.5 µM (inactive); in the test on PC-3 it was > 100 µM (inactive); in the test with HT-29, 25.8 µM (inactive); in the test on SF-268, 68.4 µM (inactive). Further, the GI50 in the test with A549 is > 100 µM (inactive); with HCT-116, 57.4 µM (inactive); in the test with SK-OV-3 it was > 100 µM (inactive); with MDA-MB-435, > 100 µM (inactive); in the test on HCT-15, 28.6 µM; with DU-145, > 100 µM (inactive). The GI50 in the test with NCI/ADR-RES was 10.5 µM (inactive).

On to `O=C(NN=C1CCN(Cc2ccccc2)CC1)C(O)(c1ccccc1)c1ccccc1`, for which the GI50 in the test with U-251, in the test with MCF7, in the test on SR, in the test on HT-29, in the test on SF-268 and in the test with A549 was > 100 µM (inactive) throughout. In addition, the GI50 is > 100 µM (inactive) with HCT-116; > 100 µM (inactive) with SK-OV-3; > 100 µM (inactive) with MDA-MB-435; more than 100 µM in the test with HCT-15; > 100 µM (inactive) in the test on DU-145; > 100 µM (inactive) in the test on NCI/ADR-RES. The GI50 in the test on T47D was > 100 µM (inactive).

For `COC(=O)[C@@H]1CC(C(C[N+](=O)[O-])c2ccc(O[Si](C)(C)C(C)(C)C)cc2)C(=O)N1C(=O)OC(C)(C)C` (stereo partly specified), the GI50 with U-251 is > 100 µM (inactive) and 78 µM (inactive); with MCF7, 45.5 µM (inactive) and 29.6 µM (inactive); with SR it was 21 µM (inactive) and 33.8 µM (inactive); with SF-268, > 100 µM (inactive) and 95.3 µM (inactive); in the test on A549 it was 67.6 µM (inactive) and 37.4 µM (inactive); with HCT-116, 63.1 µM (inactive). The GI50 with SK-OV-3 is > 100 µM (inactive); with MDA-MB-435, > 100 µM (inactive) and 73.5 µM (inactive); in the test with DU-145, > 100 µM (inactive); in the test on T47D, 22.1 µM (inactive) and 32.5 µM (inactive).

For the compound `C#CCOC(=O)C(N)CS` (stereo unspecified), the GI50 in the test with U-251, with MCF7, in the test on PC-3, in the test with HT-29, in the test on SF-268 and in the test on A549 was > 100 µM (inactive) throughout. Besides, the GI50 in the test with HCT-116, in the test with SK-OV-3, in the test with MDA-MB-435, with DU-145, in the test on NCI/ADR-RES and in the test with T47D was > 100 µM (inactive) each time.

Regarding `CCC(CCCCC1CC[C@H]2CC(=O)C[C@@H]12)OC` (stereo partly specified), the GI50 in the test on U-251, with MCF7, with HT-29, with SF-268, in the test on A549 and with HCT-116 was > 100 µM (inactive) throughout. Also, the GI50 is > 100 µM (inactive) in the test on SK-OV-3; > 100 µM (inactive) in the test with NCI-H460; more than 100 µM in the test on HCT-15; > 100 µM (inactive) in the test on DU-145; 71.1 µM (inactive) with NCI/ADR-RES; > 100 µM (inactive) in the test on T47D.

For the origin of these results see ChEMBL document CHEMBL1201862, “PubChem BioAssay data set” (2004).
